From patent publication US20240067702A1, “LACTAM-MODIFIED P[…]” (DONGBAO PURPLE STAR (HANGZHOU) BIOPHARMACEUTICAL CO., LTD., priority 2020, published 2024) come the findings set out here.

The Cmax is the highest concentration seen after dosing. Usually Tmax stands for the time at which the peak concentration occurs.

The nature of data set [1]: Kidney homogenate stability (BHS) test. The class given is in vitro ADME. The settings on record: normal mouse kidney homogenate, 37° C., read-out: BHS (T1/2 (min)). As to the method:
To study the stability of the test compounds in normal mouse kidney homogenate.
1. Before the experiment, the frozen kidney homogenate was thawed in a 37° C. water bath.
2. Test compounds: 10 mM stock solution was diluted with DMSO to prepare 1 mM intermediate solution;
3. test compounds: 1 mM intermediate solution was diluted with DMSO to prepare 50 μM dosing solution;
4. at each time point (0, 10, 30, 60, 120, 180, 240 min), 100 μL of 4% H3PO4 and 800 μL of stop solution were added to precipitate the protein, and mixed thoroughly.
5. The samples were centrifuged at 4000 rpm for 10 min, and 100 μL of supernatant was taken from each well to the plate. The samples were shaken at 800 rpm for approximately 10 min before submitting for LC-MS/MS test.

Data set [2] in a line: Plasma stability (PLS) test, human plasma. The class given is in vitro ADME. The settings on record: up to 120 min, read-out: PLS (H/M) T1/2, H; for half-life at 2 μM: pH 7.4, 37° C.
Data set [3] is described as follows: Pharmacokinetic evaluation in cynomolgus monkeys. The class given is in vivo. The settings on record: cynomolgus monkey, 0.02 mg/kg, single SC 0.02 mpk; for half-life: read-out: Half-life T1/2 (converted); for AUC(0-t): read-out: SC Concentration Integral AUC0-240 h. Here is the method: To test the pharmacokinetics of compounds in cynomolgus monkeys in vivo
The pharmacokinetic characteristics of the compounds in mammals after intravenous injection and subcutaneous injection were tested according to the standard protocol. In the experiment, the candidate compounds were formulated into clear solutions, and a single subcutaneous injection (SC, 0.02 mpk) was given to the cynomolgus monkeys. The vehicle for subcutaneous injection was citrate buffer (20 mM, pH=7). Whole blood was collected and prepared to obtain plasma. Drug concentration was analyzed by LC-MS/MS method, and pharmacokinetic parameters were calculated by Phoenix WinNonlin software.

The structures appear in SMILES notation. Read-outs that look alike come from different tables or passages of the source. *1 amine or outer side, *2 acyl side, *3 side chain or, on linkers, in order; H or OH if unused. Where a SMILES comes first, the peptide text is derived from it. Bridges are numbered along the chain shown (N, C = ends). Side-chain parts run from the residue outwards. [ ]: non-standard residue; d: D form. The star is where a group is joined. C20 diacid = O=C(O)CCCCCCCCCCCCCCCCCCC(=O)*; γGlu = O=C(O)[C@H](CCC(=O)[*:2])N[*:1]; AEEA = NCCOCCOCC(=O)O; Aib = CC(C)(N)C(=O)O

On to `CC[C@H](C)[C@H](NC(=O)[C@H](CC(C)C)NC(=O)[C@H](Cc1c[nH]c2ccccc12)NC(=O)[C@@H]1CCC(=O)NCCCC[C@H](NC(=O)[C@H](CCC(N)=O)NC(=O)[C@H](C)NC(=O)[C@H](CCCCNC(=O)COCCOCCNC(=O)COCCOCCNC(=O)CC[C@H](NC(=O)CCCCCCCCCCCCCCCCCCC(=O)O)C(=O)O)NC(=O)[C@H](CCCCN)NC(=O)[C@H](CC(=O)O)NC(=O)[C@H](CC(C)C)NC(=O)C(C)(C)NC(=O)[C@@H](NC(=O)[C@H](CO)NC(=O)[C@H](Cc2ccc(O)cc2)NC(=O)[C@H](CC(=O)O)NC(=O)[C@H](CO)NC(=O)[C@@H](NC(=O)[C@H](Cc2ccccc2)NC(=O)[C@@H](NC(=O)CNC(=O)[C@H](CCC(=O)O)NC(=O)C(C)(C)NC(=O)[C@@H](N)Cc2ccc(O)cc2)[C@@H](C)O)[C@@H](C)O)[C@@H](C)CC)C(=O)N[C@@H](C)C(=O)N[C@@H](Cc2ccccc2)C(=O)N[C@@H]([C@@H](C)CC)C(=O)N1)C(=O)N[C@@H](C)C(=O)NCC(=O)NCC(=O)N1CCC[C@H]1C(=O)N[C@@H](CO)C(=O)N[C@@H](CO)C(=O)NCC(=O)N[C@@H](C)C(=O)N1CCC[C@H]1C(=O)N1CCC[C@H]1C(=O)N1CCC[C@H]1C(=O)N[C@@H](CO)C(N)=O` [WX-006] (H-Y[Aib]EGTFTSDYSI[Aib]LDKK([AEEA-AEEA-γGlu-C20 diacid])AQKAFIEWLIAGGPSSGAPPPS-NH2; lactam 20-24), for which, in data set [1], the half-life came out at 234 min. Further, in data set [2], the half-life at 2 μM was above 4.82 h. In data set [3] (plasma), the peak concentration (Cmax) was 0.03 µM, the Tmax worked out at 29 h, the half-life is 72.4 h and the AUC(0-t) came out at 3.64 µM·h.

`CC[C@H](C)[C@H](NC(=O)[C@H](CC(C)C)NC(=O)[C@H](Cc1c[nH]c2ccccc12)NC(=O)[C@@H]1CCC(=O)NCCCC[C@H](NC(=O)[C@H](CCC(N)=O)NC(=O)[C@H](C)NC(=O)[C@H](CCCCNC(=O)COCCOCCNC(=O)COCCOCCNC(=O)CC[C@H](NC(=O)CCCCCCCCCCCCCCCCCCC(=O)O)C(=O)O)NC(=O)[C@H](CCCCN)NC(=O)[C@H](CC(=O)O)NC(=O)[C@H](CC(C)C)NC(=O)C(C)(C)NC(=O)[C@@H](NC(=O)[C@H](CO)NC(=O)[C@H](Cc2ccc(O)cc2)NC(=O)[C@H](CC(=O)O)NC(=O)[C@H](CO)NC(=O)[C@@H](NC(=O)[C@H](Cc2ccccc2)NC(=O)[C@@H](NC(=O)CNC(=O)[C@H](CCC(=O)O)NC(=O)C(C)(C)NC(=O)[C@@H](N)Cc2ccc(O)cc2)[C@@H](C)O)[C@@H](C)O)[C@@H](C)CC)C(=O)N[C@@H](CCC(=O)O)C(=O)N[C@@H](Cc2ccccc2)C(=O)N[C@@H](C(C)C)C(=O)N1)C(=O)N[C@@H](C)C(=O)NCC(=O)NCC(=O)N1CCC[C@H]1C(=O)N[C@@H](CO)C(=O)N[C@@H](CO)C(=O)NCC(=O)N[C@@H](C)C(=O)N1CCC[C@H]1C(=O)N1CCC[C@H]1C(=O)N1CCC[C@H]1C(=O)N[C@@H](CO)C(N)=O` [WX-005] (H-Y[Aib]EGTFTSDYSI[Aib]LDKK([AEEA-AEEA-γGlu-C20 diacid])AQKEFVEWLIAGGPSSGAPPPS-NH2; lactam 20-24): in data set [1], the half-life came out at 21 min. Also, the half-life at 2 μM in data set [2] is above 4.82 h. Moreover, in data set [3] (plasma), the highest concentration (Cmax) stood at 0.031 µM, the Tmax amounted to 40 h, the half-life is 98 h and the AUC(0-t) came to 4.55 µM·h.

As for `CC[C@H](C)[C@H](NC(=O)[C@H](CC(C)C)NC(=O)[C@H](Cc1c[nH]c2ccccc12)NC(=O)[C@@H]1CCC(=O)NCCCC[C@H](NC(=O)[C@H](CCC(N)=O)NC(=O)[C@H](C)NC(=O)[C@H](CCCCNC(=O)COCCOCCNC(=O)COCCOCCNC(=O)CC[C@H](NC(=O)CC[C@H](NC(=O)CCCCCCCCCCCCCCCCCCC(=O)O)C(=O)O)C(=O)O)NC(=O)[C@H](CCCCN)NC(=O)[C@H](CC(=O)O)NC(=O)[C@H](CC(C)C)NC(=O)C(C)(C)NC(=O)[C@@H](NC(=O)[C@H](CO)NC(=O)[C@H](Cc2ccc(O)cc2)NC(=O)[C@H](CC(=O)O)NC(=O)[C@H](CO)NC(=O)[C@@H](NC(=O)[C@H](Cc2ccccc2)NC(=O)[C@@H](NC(=O)CNC(=O)[C@H](CCC(=O)O)NC(=O)C(C)(C)NC(=O)[C@@H](N)Cc2ccc(O)cc2)[C@@H](C)O)[C@@H](C)O)[C@@H](C)CC)C(=O)N[C@@H](C)C(=O)N[C@@H](Cc2ccccc2)C(=O)N[C@@H](C(C)C)C(=O)N1)C(=O)N[C@@H](C)C(=O)NCC(=O)NCC(=O)N1CCC[C@H]1C(=O)N[C@@H](CO)C(=O)N[C@@H](CO)C(=O)NCC(=O)N[C@@H](C)C(=O)N1CCC[C@H]1C(=O)N1CCC[C@H]1C(=O)N1CCC[C@H]1C(=O)N[C@@H](CO)C(N)=O` [WX-002] (H-Y[Aib]EGTFTSDYSI[Aib]LDKK([AEEA-AEEA-γGlu-γGlu-C20 diacid])AQKAFVEWLIAGGPSSGAPPPS-NH2; lactam 20-24), in data set [1] (tissue homogenate), the half-life was found to be 20 min. For the same compound, in data set [2] (2 μM, 37° C.), the half-life was above 4.82 h. Further, in data set [3] (in vivo), the Cmax was 0.033 µM, the time of peak concentration (Tmax) is 29 h, the half-life was 81 h and the AUC(0-t) was determined as 4.58 µM·h.
